Test results: ChEMBL document CHEMBL3137667, “[Drug-induced liver injury; fourteenth updated edition of the bibliographic database of liver injuries and related drugs]” (Gastroenterol Clin Biol, 2004)

Key:
[1] = human
[2] = human, serum, 4383 h
[3] = human; remark: listed apart in the source
[4] = human, serum
[5] = human; remark: listed apart in the source
[6] = human; remark: listed apart in the source
[7] = human, serum; remark: listed apart in the source
[8] = human; remark: listed apart in the source
[9] = human; remark: listed apart in the source
[10] = human; remark: listed apart in the source
[11] = Highest frequency of acute liver toxicity observed during clinical trials, expressed as a percentage. [column '% AIGUE' in source]; details: human
[12] = Highest frequency of moderate liver toxicity observed during clinical trials, expressed as a percentage. [column '% BIOL' in source]; details: human
[13] = human; remark: listed apart in the source
[14] = human; remark: listed apart in the source
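Wherever Hepatotoxicity (association with vascular disease) is given: count of indexed literature references reporting vascular liver injury in humans, e.g. peliosis hepatitis, hepatic veno-occlusive disease or Budd-Chiari syndrome.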
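Wherever Hepatotoxicity (benign tumour) is given: value is a count of indexed literature references citing a benign tumour confirmed by histopathology.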
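Wherever Hepatotoxicity (choleostasis) is given: human cholestatic liver injury, shown by histopathology or by peak ALT or AST elevation over alkaline phosphatase ratio below 2, value counts indexed literature reports.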
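Wherever Hepatotoxicity (chronic liver disease) is given: chronic liver injury confirmed by histopathology or persistently raised serum aminotransferase activity beyond 6 months, value given as the count of indexed literature references.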
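Wherever Hepatotoxicity (cirrhosis) is given: value is a count of indexed literature references reporting cirrhosis confirmed by histopathology.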
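Wherever Hepatotoxicity (cytolytic) is given: human cytolytic liver injury, shown by histopathology or by a ratio above 5 of peak ALT or AST elevation to alkaline phosphatase elevation, value counts indexed references.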
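Wherever Hepatotoxicity (granulomatous hepatitis) is given: value is a count of indexed literature references reporting granulomatous liver disease confirmed by histopathology.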
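Wherever Hepatotoxicity (malignant tumour) is given: malignant tumour confirmed by histopathology, value gives the count of indexed literature references reporting it.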
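Wherever Hepatotoxicity (severe hepatitis) is given: human clinical data: severe hepatitis, meaning potentially life-threatening liver failure or clinically observed cases, the value counts how many indexed literature references report it.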
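Wherever Hepatotoxicity (steatosis) is given: steatosis confirmed by histopathology, value is the count of indexed references.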

Compound | Hepatotoxicity (benign tumour) [1] | Hepatotoxicity (chronic liver disease) [2] | Hepatotoxicity (cytolytic) [3] | Hepatotoxicity (acute) [4] | Hepatotoxicity (cirrhosis) [5] | Hepatotoxicity (association with vascular disease) [6] | Hepatotoxicity (moderate) [7] | Hepatotoxicity (malignant tumour) [8] | Hepatotoxicity (severe hepatitis) [9] | Hepatotoxicity (granulomatous hepatitis) [10] | Hepatotoxicity (acute) [11] | Hepatotoxicity (moderate) [12] | Hepatotoxicity (choleostasis) [13] | Hepatotoxicity (steatosis) [14]
OCCN1CCN(CC/C=C2/c3ccccc3Sc3ccc(Cl)cc32)CC1 [ZUCLOPENTHIXOL] | 0 | 0 | 0 | 0 | 0 | 0 | 1 | 0 | 0 | 0 | 0% | 19% | 0 | 0
ADALIMUMAB | 0 | 0 | 0 | 0 | 0 | 0 | 1 | 0 | 0 | 0 | 0% | 12.1% | 0 | 0
BEMIPARIN SODIUM | 0 | 0 | 0 | 0 | 0 | 0 | 1 | 0 | 0 | 0 | 0% | 0% | 0 | 0
CAPROMAB PENDETIDE | 0 | 0 | 0 | 0 | 0 | 0 | 1 | 0 | 0 | 0 | 0% | < 1% | 0 | 0
CHOLESTYRAMINE | 0 | 0 | 0 | 0 | 0 | 0 | 11 | 0 | 0 | 0 | 0% | 30% | 0 | 0
COLISTIN | 0 | 0 | 0 | 0 | 0 | 0 | 1 | 0 | 0 | 0 | 0% | 0% | 0 | 0
DENILEUKIN DIFTITOX | 0 | 0 | 1 | 1 | 0 | 0 | 3 | 0 | 0 | 0 | 10% | 45% | 0 | 0
EPOETIN ALFA | 0 | 0 | 0 | 0 | 0 | 0 | 4 | 0 | 0 | 0 | 0% | 20% | 0 | 0
ETARACIZUMAB | 0 | 0 | 0 | 0 | 0 | 0 | 1 | 0 | 0 | 0 | 0% | 77.8% | 0 | 0
GALLIUM | 0 | 0 | 0 | 1 | 0 | 0 | 1 | 0 | 0 | 0 | 21.4% | 28.6% | 1 | 0
GENTAMICIN | 0 | 0 | 0 | 0 | 0 | 0 | 7 | 0 | 0 | 0 | 0% | 14.3% | 0 | 0
INTERLEUKIN 1BETA | 0 | 0 | 0 | 0 | 0 | 0 | 1 | 0 | 0 | 0 | 0% | 75% | 0 | 0
LENTINAN | 0 | 0 | 0 | 0 | 0 | 0 | 2 | 0 | 0 | 0 | 0% | 2% | 0 | 0
LOBAPLATIN | 0 | 0 | 0 | 0 | 0 | 0 | 1 | 0 | 0 | 0 | 0% | 3.7% | 0 | 0
NARTOGRASTIM | 0 | 0 | 0 | 0 | 0 | 0 | 1 | 0 | 0 | 0 | 0% | 0% | 0 | 0
NEDAPLATIN | 0 | 0 | 0 | 0 | 0 | 0 | 1 | 0 | 0 | 0 | 0% | 19.2% | 0 | 0
NYSTATIN | 0 | 0 | 1 | 1 | 0 | 0 | 3 | 0 | 0 | 0 | 0% | 33.3% | 0 | 0
PALIVIZUMAB | 0 | 0 | 0 | 0 | 0 | 0 | 1 | 0 | 0 | 0 | 0% | 3.6% | 0 | 0
